Laboratory results as given in PubChem BioAssay AID2060499 (Molecular Pharmacology Branch, DTP, NCI, 2025).

Tested on: 777334-354-R2-J4-PDC tumor spheroids with HUVEC/MSC, viability
Assay: Anticancer human tumor 777334-354-R2-J4-PDC patient-derived pancreatic adenocarcinoma cell line growth inhibition [GQUAD]
Settings: for IC50: curve of first compound; for viability, T/C: stronger effect = lower value
From the text: DNA G-quadruplex Stabilizer Agents in Combinations in Complex Spheroids
A high-throughput screen of multi-cell type tumor spheroids was designed to identify active combinations of DNA G-quadruplex stabilizer agents and targeted small molecules. Complex spheroids include a stromal component modeled by human endothelial cells (HUVEC) and fibroblasts modeled by human mesenchymal stem cells (MSCs). The concentration ranges selected for each drug and investigational agent were based upon clinically achievable concentrations if the clinical Cmax of the agent was known.
Compounds. The drugs and investigational agents: pidnarulex (CX-5461; NSC782164), APTO-253 (NSC789042), BRACO-19 (NSC847499), peposertib (NSC802822), ceralasertib (NSC780249), elimusertib (NSC800525), camonsertib (NSC841442), AZD-1390 (NSC803789), olaparib (NSC753686), talazoparib (NSC767125), ART-558 (NSC835418), sotorasib (NSC818433), MRTX-1133 (NSC836407), SN-38 (NSC673596), topotecan (NSC609699), etoposide (NSC141540), doxorubicin (NSC123127), gemcitabine (NSC613327), 5-fluorouracil (NSC19893), paclitaxel (NSC125973), vemurafenib (NSC761431), panobinostat (NSC761190), R-306465 (JNJ-16241199; NSC773264), adavosertib (NSC754352), TP-3654 (NSC805149), carboplatin (NSC241240), KSQ-4279 (NSC840948), and staurosporine (NSC755774) were obtained from the National Cancer Institute (NCI) Developmental Therapeutics Program Chemical Repository (34). The FDA-approved anticancer drug set is available from the NCI Developmental Therapeutics Program. […] The stock solutions were prepared in dimethyl sulfoxide (DMSO, Sigma-Aldrich, St. Louis, MO, cat. D2650) at 800-fold the tested concentration and stored at -70 degrees C prior to their use. All drugs and investigational agents were tested over a range starting from a high concentration at or near the clinical Cmax and decreasing in half-log increments. If the clinical Cmax for an agent had not been determined, the highest concentration tested was 10 microM.
2.3 Cell Culture. All cells were maintained in an incubator at 37 degrees C and 5% CO2 with 95% humidity. The PDC lines were cultured according to standard operating procedures established by the NCI PDMR. All PDCs were thawed and cultured in Matrigel-coated flasks prepared with a working solution of 1X Ham's F-12 nutrient mix, without supplementation (Invitrogen, cat. 11765054), 100 U/mL penicillin-streptomycin (Invitrogen, cat. 15140122), and 2.5% Matrigel (Corning Inc., cat. 354248) for the first three passages. The 857933-349-R-J2-PDC line was cultured in 6C/Colon 1B media, which includes advanced DMEM/F-12 (Thermo Fisher Scientific, cat. 12634028), 10 mM HEPES (Thermo Fisher Scientific, cat. 15630080), 1X GlutaMAX supplement (Thermo Fisher Scientific, cat. 35050061), 0.1 mg/mL primocin (InvivoGen, cat. ant-pm-2), 10% defined fetal bovine serum, heat inactivated (HyClone Laboratories Inc., cat. SH30070.03HI), 50% L-WRN conditioned media (ATCC, cat. CRL-3276), 1.25 mM N-Acetyl-L-cysteine (Sigma-Aldrich, cat. A9165), 10 mM nicotinamide (Sigma-Aldrich, cat. N0636), 1X B-27 supplement (Thermo Fisher Scientific, cat. 17504044), 1X N-2 supplement (Thermo Fisher Scientific, cat. 17502048), 10 microM Y-27632 dihydrochloride (Tocris Bioscience, cat. 1254), and 50 ng/mL human EGF recombinant protein (Thermo Fisher Scientific, cat. PHG0311). The 485176-168-R4-J1-PDC line was cultured in Panc media, which includes all 6C/Colon 1B media components plus 100 ng/mL human FGF-10 (Thermo Fisher Scientific, cat. 100-26), 500 nM SB-431542 (Selleckchem, cat. S1067), and gastrin (Tocris, cat. 3006).
[…]

[1] = second compound 0.0316 µM, first compound 0.0316 µM
[2] = second compound 0.0316 µM, first compound 0.1 µM
[3] = second compound 0.0316 µM, first compound 0.316 µM
[4] = second compound 0.0316 µM, first compound 1 µM
[5] = second compound 0.0316 µM, first compound 3.16 µM
[6] = second compound 0.0316 µM, first compound 10 µM
[7] = second compound 0.1 µM, first compound 0.0316 µM
[8] = second compound 0.1 µM, first compound 0.1 µM
[9] = second compound 0.1 µM, first compound 0.316 µM
[10] = second compound 0.1 µM, first compound 1 µM
[11] = second compound 0.1 µM, first compound 3.16 µM
[12] = second compound 0.1 µM, first compound 10 µM
[13] = second compound 0.316 µM, first compound 0.0316 µM
[14] = second compound 0.316 µM, first compound 0.1 µM
[15] = second compound 0.316 µM, first compound 0.316 µM
[16] = second compound 0.316 µM, first compound 1 µM
[17] = second compound 0.316 µM, first compound 3.16 µM
[18] = second compound 0.316 µM, first compound 10 µM
[19] = second compound 1 µM, first compound 0.0316 µM
[20] = second compound 1 µM, first compound 0.1 µM
[21] = second compound 1 µM, first compound 0.316 µM
[22] = second compound 1 µM, first compound 1 µM
[23] = second compound 1 µM, first compound 3.16 µM
[24] = second compound 1 µM, first compound 10 µM
[25] = second compound 3.16 µM, first compound 0.0316 µM
[26] = second compound 3.16 µM, first compound 0.1 µM
[27] = second compound 3.16 µM, first compound 0.316 µM
[28] = second compound 3.16 µM, first compound 1 µM
[29] = second compound 3.16 µM, first compound 3.16 µM
[30] = second compound 3.16 µM, first compound 10 µM
[31] = second compound 10 µM, first compound 0.0316 µM
[32] = second compound 10 µM, first compound 0.1 µM
[33] = second compound 10 µM, first compound 0.316 µM
[34] = second compound 10 µM, first compound 1 µM
[35] = second compound 10 µM, first compound 3.16 µM
[36] = second compound 10 µM, first compound 10 µM
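Note: spheroids exposed to compounds for 7 days before readout.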

## Cc1cccc(N(C)C(=O)C2C(O)CCN2c2nc(C)cc(C(F)(F)F)c2C#N)c1 (centres undefined) + Cc1[nH]c2ccc(F)cc2c1-c1nc2c3cccnc3c3ncccc3c2[nH]1
Second compound 0.0316 µM
  IC50: > 10000 nM
Second compound 0.1 µM
  IC50: > 10000 nM
Second compound 0.316 µM
  IC50: > 10000 nM
Second compound 1 µM
  IC50: > 10000 nM
Second compound 3.16 µM
  IC50: < 31.6 nM
Second compound 10 µM
  IC50: < 31.6 nM
[1]
  viability, T/C: 112%
[2]
  viability, T/C: 104%
[3]
  viability, T/C: 95.3%
[4]
  viability, T/C: 95.5%
[5]
  viability, T/C: 94.5%
[6]
  viability, T/C: 92.9%
[7]
  viability, T/C: 97.6%
[8]
  viability, T/C: 97%
[9]
  viability, T/C: 92.1%
[10]
  viability, T/C: 93.4%
[11]
  viability, T/C: 103%
[12]
  viability, T/C: 101%
[13]
  viability, T/C: 95.3%
[14]
  viability, T/C: 88.5%
[15]
  viability, T/C: 101%
[16]
  viability, T/C: 95.8%
[17]
  viability, T/C: 95.8%
[18]
  viability, T/C: 91.2%
[19]
  viability, T/C: 78.8%
[20]
  viability, T/C: 85.4%
[21]
  viability, T/C: 83.3%
[22]
  viability, T/C: 71%
[23]
  viability, T/C: 90.4%
[24]
  viability, T/C: 87.2%
[25]
  viability, T/C: 35.1%
[26]
  viability, T/C: 36.6%
[27]
  viability, T/C: 37.3%
[28]
  viability, T/C: 31.1%
[29]
  viability, T/C: 33.5%
[30]
  viability, T/C: 46%
[31]
  viability, T/C: 32.4%
[32]
  viability, T/C: 34.5%
[33]
  viability, T/C: 35.7%
[34]
  viability, T/C: 30.5%
[35]
  viability, T/C: 25.7%
[36]
  viability, T/C: 38.8%

## O=C(NO)c1cnc(N2CCN(S(=O)(=O)c3ccc4ccccc4c3)CC2)nc1 + Cc1[nH]c2ccc(F)cc2c1-c1nc2c3cccnc3c3ncccc3c2[nH]1
Second compound 0.0316 µM
  IC50: 1440 nM
Second compound 0.1 µM
  IC50: 1390 nM
Second compound 0.316 µM
  IC50: 1520 nM
Second compound 1 µM
  IC50: 1580 nM
Second compound 3.16 µM
  IC50: 1050 nM
Second compound 10 µM
  IC50: < 31.6 nM
[1]
  viability, T/C: 104%
[2]
  viability, T/C: 91.6%
[3]
  viability, T/C: 87.3%
[4]
  viability, T/C: 68.3%
[5]
  viability, T/C: 12.7%
[6]
  viability, T/C: 2.55%
[7]
  viability, T/C: 92.7%
[8]
  viability, T/C: 101%
[9]
  viability, T/C: 91.6%
[10]
  viability, T/C: 64.6%
[11]
  viability, T/C: 13.6%
[12]
  viability, T/C: 0.23%
[13]
  viability, T/C: 99.2%
[14]
  viability, T/C: 92.9%
[15]
  viability, T/C: 86.2%
[16]
  viability, T/C: 67.1%
[17]
  viability, T/C: 22%
[18]
  viability, T/C: 2.6%
[19]
  viability, T/C: 88.4%
[20]
  viability, T/C: 84.6%
[21]
  viability, T/C: 71.8%
[22]
  viability, T/C: 70.1%
[23]
  viability, T/C: 22.5%
[24]
  viability, T/C: 2.98%
[25]
  viability, T/C: 55.7%
[26]
  viability, T/C: 41.7%
[27]
  viability, T/C: 67%
[28]
  viability, T/C: 50.5%
[29]
  viability, T/C: 17.5%
[30]
  viability, T/C: 0.99%
[31]
  viability, T/C: 38.4%
[32]
  viability, T/C: 38.7%
[33]
  viability, T/C: 52.4%
[34]
  viability, T/C: 41.9%
[35]
  viability, T/C: 19.7%
[36]
  viability, T/C: 2.58%
